One assay has as its target T1, human arginase I (ARG I) (Homo sapiens, UniProt P05089).
T1 sequence (P05089 1-322): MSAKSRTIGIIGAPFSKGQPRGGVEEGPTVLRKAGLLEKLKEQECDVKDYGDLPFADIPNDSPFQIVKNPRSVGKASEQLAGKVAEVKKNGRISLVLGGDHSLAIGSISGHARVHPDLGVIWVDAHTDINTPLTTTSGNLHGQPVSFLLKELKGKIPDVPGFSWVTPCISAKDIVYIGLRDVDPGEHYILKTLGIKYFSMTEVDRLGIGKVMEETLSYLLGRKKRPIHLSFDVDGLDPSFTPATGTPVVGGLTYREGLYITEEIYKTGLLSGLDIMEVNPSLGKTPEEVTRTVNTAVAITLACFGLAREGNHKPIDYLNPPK
In words: Inhibition of arginase I, spectrophotometric urea assay at 530 nm. It counts as biochemical. The note with it: read-out: Potency (ARG I). The method in brief:
(§1)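 IC50 was derived by regression of OD530 normalized to uninhibited-enzyme controls against log concentration. Urea from 60-min, 37 °C turnover of L-arginine with manganese sulfate was detected after acid o-phthaldialdehyde/primaquine quench and 10 min colour development. Arginase I and II came from 100 ng/ml stocks in pH 7.4 phosphate with ovalbumin.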

Another assay has as its target T2, arginase II (ARG II) (Homo sapiens, UniProt P78540).
T2 sequence (P78540 23-354): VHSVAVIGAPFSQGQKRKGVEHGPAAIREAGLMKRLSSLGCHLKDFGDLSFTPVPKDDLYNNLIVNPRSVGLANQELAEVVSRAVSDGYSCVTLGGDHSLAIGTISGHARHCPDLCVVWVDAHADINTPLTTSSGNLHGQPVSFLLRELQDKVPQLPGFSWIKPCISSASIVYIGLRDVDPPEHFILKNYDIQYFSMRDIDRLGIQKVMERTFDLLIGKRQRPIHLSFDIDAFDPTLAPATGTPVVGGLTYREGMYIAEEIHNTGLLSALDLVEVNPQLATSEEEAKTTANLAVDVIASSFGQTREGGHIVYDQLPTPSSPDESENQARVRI
In words: Inhibition of arginase II, spectrophotometric urea assay at 530 nm. It counts as biochemical. The method in brief:
as §1

Where [1] appears, read: Formula II compounds, Table 2-A.
Where [2] appears, read: Formula II compounds, Table 2-A, read-out: Potency (ARG).
Setting [3] is: Formula I compounds, Table 2, read-out: Potency (ARG II).

Where a name gives a salt, the structure may show the parent alone. Read-outs that look alike come from different tables or passages of the source. Where only a bound is given, the exact number is not on record here.

For the compound `NC(CCCCB(O)O)(C(=O)O)C1CCN(Cc2ccc(OC(F)(F)F)cc2)CC1` (stereo not drawn) [Example 100-A, 2-amino-6-borono-2-(1-(4-(trifluoromethoxy)benzyl)piperidin-4-yl)hexanoic acid dihydrochloride], the IC50 at human arginase I (ARG I) (setting [1]) and on arginase II (ARG II) (setting [2]) was 0.1 to 250 nM throughout.
Turning to `CCCN1CCC(C(N)(CCCCB(O)O)C(=O)O)CC1` (stereo not drawn) [Example 101-A, 2-amino-6-borono-2-(1-propylpiperidin-4-yl)hexanoic acid dihydrochloride], the IC50 at human arginase I (ARG I) (setting [1]) fell in the range of 251 to 1000 nM; at arginase II (ARG II) (setting [2]), 0.1 to 250 nM.
In the case of `NC(CCCCB(O)O)(C(=O)O)C1CCN(CCCc2ccccc2)CC1` (stereo not drawn) [Example 102-A, 2-amino-6-borono-2-(1-(3-phenylpropyl)piperidin-4-yl)hexanoic acid dihydrochloride], the IC50 on human arginase I (ARG I) (setting [1]) and on arginase II (ARG II) (setting [2]) was 0.1 to 250 nM throughout.
Turning to `NC(CCCCB(O)O)(C(=O)O)C1CCN(Cc2cccc(OC(F)(F)F)c2)CC1` (stereo not drawn) [Example 103-A, 2-amino-6-borono-2-(1-(3-(trifluoromethoxy)benzyl)piperidin-4-yl)hexanoic acid dihydrochloride], the IC50 on human arginase I (ARG I) (setting [1]) and at arginase II (ARG II) (setting [2]) was 0.1 to 250 nM in each case.
As to `NC(CCCCB(O)O)(C(=O)O)C1CCN(Cc2csc3ccccc23)CC1` (stereo not drawn) [Example 104-A, 2-amino-2-(1-(benzo[b]thiophen-3-ylmethyl)piperidin-4-yl)-6-boronohexanoic acid dihydrochloride], the IC50 on human arginase I (ARG I) (setting [1]) and at arginase II (ARG II) (setting [2]) was 0.1 to 250 nM in each case.
With `NC(CCCCB(O)O)(C(=O)O)C1CCN(Cc2cccc(C(=O)O)c2)CC1` (stereo not drawn) [Example 105-A, 3-((4-(1-amino-5-borono-1-carboxypentyl)piperidin-1-yl)methyl)benzoic acid dihydrochloride], the IC50 on human arginase I (ARG I) (setting [1]) and on arginase II (ARG II) (setting [2]) was 251 to 1000 nM each time.
Take `N#Cc1cccc(CN2CCC(C(N)(CCCCB(O)O)C(=O)O)CC2)c1` (stereo not drawn) [Example 106-A, 2-amino-6-borono-2-(1-(3-cyanobenzyl)piperidin-4-yl)hexanoic acid dihydrochloride]: the IC50 on human arginase I (ARG I) (setting [1]) and on arginase II (ARG II) (setting [2]) was 251 to 1000 nM in each case.
As for `N[C@](CCCCB(O)O)(CCN1Cc2ccccc2C[C@H]1CO)C(=O)O` [compound 1, (R)-2-amino-6-borono-2-(2-((S)-3-(hydroxymethyl)-3,4-dihydroisoquinolin-2(1H)-yl)ethyl)hexanoic acid dihydrochloride], the IC50 lay within 251 to 1000 nM at human arginase I (ARG I) (Formula I compounds, Table 2) and 251 to 1000 nM on arginase II (ARG II) (setting [3]).
For the compound `COC[C@@H]1CCCN1CC[C@](N)(CCCCB(O)O)C(=O)O` [compound 2, (R)-2-amino-6-borono-2-(2-((S)-2-(methoxymethyl)pyrrolidin-1-yl)ethyl)hexanoic acid dihydrochloride], the IC50 lay within 251 to 1000 nM at human arginase I (ARG I) (Formula I compounds, Table 2) and 251 to 1000 nM on arginase II (ARG II) (setting [3]).
As for `COC[C@H]1CCCN1CC[C@](N)(CCCCB(O)O)C(=O)O` [compound 3, (R)-2-amino-6-borono-2-(2-((R)-2-(methoxymethyl)pyrrolidin-1-yl)ethyl)hexanoic acid dihydrochloride], the IC50 lay in the range of 1000 to 2000 nM at human arginase I (ARG I) (Formula I compounds, Table 2) and 1000 to 2000 nM on arginase II (ARG II) (setting [3]).
Regarding `N[C@](CCCCB(O)O)(CCN1CCC(O)CC1)C(=O)O` [compound 4, (R)-2-amino-6-borono-2-(2-(4-hydroxypiperidin-1-yl)ethyl)hexanoic acid dihydrochloride], the IC50 is 251 to 1000 nM on human arginase I (ARG I) (Formula I compounds, Table 2) and 251 to 1000 nM on arginase II (ARG II) (setting [3]).
With `N[C@](CCCCB(O)O)(CCN1CCC[C@H](O)C1)C(=O)O` [compound 5, (R)-2-amino-6-borono-2-(2-((S)-3-hydroxypiperidin-1-yl)ethyl)hexanoic acid dihydrochloride], the IC50 was in the range of 1000 to 2000 nM at human arginase I (ARG I) (Formula I compounds, Table 2) and 2000 to 5000 nM on arginase II (ARG II) (setting [3]).
Consider `COc1ccc(CCN(C)CC[C@](N)(CCCCB(O)O)C(=O)O)cc1OC` [compound 6, (R)-2-amino-6-borono-2-(2-((3,4-dimethoxyphenethyl)(methyl)amino)ethyl)hexanoic acid dihydrochloride], for which the IC50 on human arginase I (ARG I) (Formula I compounds, Table 2) fell in the range of 251 to 1000 nM; on arginase II (ARG II) (setting [3]), 1000 to 2000 nM.
With `N[C@](CCCCB(O)O)(CCN1CC[C@@H](CO)C1)C(=O)O` [compound 7, (R)-2-amino-6-borono-2-(2-((R)-3-(hydroxymethyl)pyrrolidin-1-yl)ethyl)hexanoic acid dihydrochloride], the IC50 on human arginase I (ARG I) (Formula I compounds, Table 2) was in the range of 0.1 to 250 nM; on arginase II (ARG II) (setting [3]) it was 251 to 1000 nM.
Consider `N[C@](CCCCB(O)O)(CCN1CCSCC1)C(=O)O` [compound 8, (R)-2-amino-6-borono-2-(2-thiomorpholinoethyl)hexanoic acid dihydrochloride], for which the IC50 is 1000 to 2000 nM at human arginase I (ARG I) (Formula I compounds, Table 2) and 2000 to 5000 nM on arginase II (ARG II) (setting [3]).
As for `N[C@](CCCCB(O)O)(CCN1CCC(CCO)CC1)C(=O)O` [compound 9, (R)-2-amino-6-borono-2-(2-(4-(2-hydroxyethyl)piperidin-1-yl)ethyl)hexanoic acid dihydrochloride], the IC50 on human arginase I (ARG I) (Formula I compounds, Table 2) was in the range of 0.1 to 250 nM; at arginase II (ARG II) (setting [3]), 251 to 1000 nM.
As to `N[C@](CCCCB(O)O)(CCN1CCC[C@H]1CO)C(=O)O` [compound 10, (R)-2-amino-6-borono-2-(2-((S)-2-(hydroxymethyl)pyrrolidin-1-yl)ethyl)hexanoic acid], the IC50 at human arginase I (ARG I) (Formula I compounds, Table 2) lay in the range of 0.1 to 250 nM; at arginase II (ARG II) (setting [3]), 251 to 1000 nM.
With `CN(CCc1ccccc1)CC[C@](N)(CCCCB(O)O)C(=O)O` [compound 11, (R)-2-amino-6-borono-2-(2-(methyl(phenethyl)amino)ethyl) hexanoic acid dihydrochloride], the IC50 on human arginase I (ARG I) (Formula I compounds, Table 2) lay within 0.1 to 250 nM; on arginase II (ARG II) (setting [3]), 0.1 to 250 nM.
For `CN(CC[C@](N)(CCCCB(O)O)C(=O)O)C[C@@H](O)c1cccc(O)c1` [compound 12, (R)-2-amino-6-borono-2-(2-(((S)-2-hydroxy-2-(3-hydroxyphenyl)ethyl)(methyl)amino)ethyl)hexanoic acid dihydrochloride], the IC50 at human arginase I (ARG I) (Formula I compounds, Table 2) is 0.1 to 250 nM; at arginase II (ARG II) (setting [3]) it was 0.1 to 250 nM.
Regarding `N[C@](CCCCB(O)O)(CCN1CCCCC1)C(=O)O` [compound 13, (R)-2-amino-6-borono-2-(2-(piperidin-1-yl)ethyl)hexanoic acid], the IC50 lay in the range of 0.1 to 250 nM at human arginase I (ARG I) (Formula I compounds, Table 2) and 251 to 1000 nM at arginase II (ARG II) (setting [3]).
For `C=CCC(N)(CCCCB(O)O)C(=O)O` (stereo not drawn) [compound 14, 2-allyl-2-amino-6-boronohexanoic acid], in that order: 43 nM and more than 5000 nM.
For `CC[C@](N)(CCCCB(O)O)C(=O)O` [compound 15, (S)-2-amino-6-borono-2-ethylhexanoic acid hydrochloride], in that order: 2000 to 5000 nM and 2000 to 5000 nM.
Take `NC(CCCCB(O)O)(CCN1CCCC1)C(=O)O` (stereo not drawn) [compound 16, 2-amino-6-borono-2-(2-(pyrrolidin-1-yl)ethyl)hexanoic acid]: the IC50 was in the range of 251 to 1000 nM at human arginase I (ARG I) (Formula I compounds, Table 2) and 1000 to 2000 nM on arginase II (ARG II) (setting [3]).
For the compound `NC(CCCCB(O)O)(CCN1CCN(c2ncccn2)CC1)C(=O)O` (stereo not drawn) [compound 17, 2-Amino-6-borono-2-[2-(4-pyrimidin-2-yl-piperazin-1-yl)ethyl]-hexanoic acid trihydrochloride], the IC50 on human arginase I (ARG I) (Formula I compounds, Table 2) is 2000 to 5000 nM; on arginase II (ARG II) (setting [3]), 2000 to 5000 nM.
For the compound `CN(CCC(N)(CCCCB(O)O)C(=O)O)CC(=O)O` (stereo not drawn) [compound 18, 2-amino-6-borono-2-(2-((carboxymethyl)(methyl)amino)ethyl)hexanoic acid dihydrochloride], the IC50 lay in the range of 2000 to 5000 nM at human arginase I (ARG I) (Formula I compounds, Table 2) and 2000 to 5000 nM at arginase II (ARG II) (setting [3]).
As for `NC(CCCCB(O)O)(CCN(CCO)Cc1ccccc1)C(=O)O` (stereo not drawn) [compound 20, 2-Amino-2-{2-[benzyl-(2-hydroxyethyl)-amino]-ethyl}-6-borono-hexanoic acid dihydrochloride], the IC50 at human arginase I (ARG I) (Formula I compounds, Table 2) was in the range of 2000 to 5000 nM; on arginase II (ARG II) (setting [3]), 2000 to 5000 nM.
As to `NC(CCCCB(O)O)(CCN1CCC(C(=O)O)CC1)C(=O)O` (stereo not drawn) [compound 21, 1-(3-amino-7-borono-3-carboxyheptyl)piperidine-4-carboxylic acid], the IC50 on human arginase I (ARG I) (Formula I compounds, Table 2) lay within 1000 to 2000 nM; at arginase II (ARG II) (setting [3]), 1000 to 2000 nM.
As for `NC(CCCCB(O)O)(CCN1CCC(CO)CC1)C(=O)O` (stereo not drawn) [compound 22, 2-amino-6-borono-2-(2-(4-(hydroxymethyl)piperidin-1-yl)ethyl)hexanoic acid], the IC50 on human arginase I (ARG I) (Formula I compounds, Table 2) is 251 to 1000 nM; at arginase II (ARG II) (setting [3]) it was 251 to 1000 nM.
For the compound `CCN(CC)C(=O)C1CCCN(CCC(N)(CCCCB(O)O)C(=O)O)C1` (stereo not drawn) [compound 23, 2-Amino-6-borono-2-[2-(3-diethylcarbamoyl-piperidin-1-yl)-ethyl]-hexanoic acid dihydrochloride], the IC50 lay within 251 to 1000 nM at human arginase I (ARG I) (Formula I compounds, Table 2) and 251 to 1000 nM at arginase II (ARG II) (setting [3]).
As for `COc1cc2c(cc1OC)CN(CCC(N)(CCCCB(O)O)C(=O)O)CC2` (stereo not drawn) [compound 26, 2-Amino-6-borono-2-[2-(6,7-dimethoxy-3,4-dihydro-1H-isoquinolin-2-yl)ethyl]-hexanoic acid dihydrochloride], the IC50 fell in the range of 251 to 1000 nM on human arginase I (ARG I) (Formula I compounds, Table 2) and 251 to 1000 nM on arginase II (ARG II) (setting [3]).
